Test results published in US9309222B2, “Phenyl linked quinolinyl modulators of RORγt” (Janssen Pharmaceutica NV, priority 2012, dated 2016).
Several values for one entry are separate records, joined by “and”; a condition that tells them apart may be missing. Identical values can stand only once. Counter-ions that a name gives are not always drawn.

Legend:
[1] = target: T1, human RORγt LBD (Homo sapiens, UniProt P51449); test: RORγt reporter assay (GAL4-RORγt LBD luciferase in HEK293T cells); format: cell-based; conditions: for IC50 / RORγt reporter Assay, % inhibition @ 6 μM: HEK293T cells; for IC50: 24 hours compound treatment; for inhibition at 6 µM: HEK-293T, read-out: RORγt reporter Assay, % inhibition @ 6 μM, HEK293T cells, 6 μM compound; for RORγt reporter Assay, % inhibition @ 6 μM: 6 μM compound
T1 construct: expressed in transfected cells
T1 sequence (P51449 258-518): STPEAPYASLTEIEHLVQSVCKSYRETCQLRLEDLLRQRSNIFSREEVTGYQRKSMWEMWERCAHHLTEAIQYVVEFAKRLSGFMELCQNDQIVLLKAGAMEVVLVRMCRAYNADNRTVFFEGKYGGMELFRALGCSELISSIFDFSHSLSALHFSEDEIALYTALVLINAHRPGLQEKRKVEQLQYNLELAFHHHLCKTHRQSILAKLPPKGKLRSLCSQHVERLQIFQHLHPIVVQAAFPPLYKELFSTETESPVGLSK
Procedure, shortened: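 Read-out is the firefly-to-renilla luciferase ratio versus compound concentration, after 24 h compound exposure of cells in phenol-red-free DMEM/5% lipid-reduced FCS. Cells were HEK293T bulk-transfected with a GAL4-responsive firefly reporter (pGL4.31) and GAL4 DBD–wild-type human RORγt LBD fusion (pBIND, renilla as transfection/viability control).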

[2] = tested on: IL-17 production by CD4 T cells; test: Human Th17 assay (IL-17 production by CD4 T cells under Th17 differentiation conditions); format: cell-based; conditions: IL-17 in supernatant after 3 days
Procedure, shortened: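 Primary CD4+ T cells from healthy-donor PBMC, preincubated 1 h with titrated compound (0.2% DMSO), then activated with anti-CD3/CD28 beads plus anti-IL4, anti-IFNγ, IL1β, IL23, IL6, TGFβ and IL2.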

[3] = target: T2, human RORγt ligand binding domain (RORγt LBD) (Homo sapiens, UniProt P51449); test: RORγt ThermoFluor assay (thermal shift, ligand binding affinity); conditions: estimated from concentration response of thermal shift
T2 construct: His-tag (N); TurboTEV protease cleavage site (ENLYFQG) (N); made in house; host or cells: E. coli (pHIS1, modified pET vector)
T2 sequence (P51449 with tags, fused parts or gaps): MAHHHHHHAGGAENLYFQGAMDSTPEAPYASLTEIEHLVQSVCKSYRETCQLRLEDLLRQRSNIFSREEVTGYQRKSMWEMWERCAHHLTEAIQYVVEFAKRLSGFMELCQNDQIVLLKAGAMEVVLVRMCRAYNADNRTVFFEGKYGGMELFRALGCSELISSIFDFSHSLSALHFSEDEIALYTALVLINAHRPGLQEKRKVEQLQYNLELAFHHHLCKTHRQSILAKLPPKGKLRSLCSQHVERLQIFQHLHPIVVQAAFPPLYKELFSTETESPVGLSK
Procedure, shortened: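 Thermal shift of 0.065 mg/mL RORγt with 60 μM 1,8-ANS in 100 mM Hepes pH 7.0, 10 mM NaCl, 2.5 mM GSH, 0.002% Tween-20. Compounds in 1:2 series from 10 mM DMSO stock. Dye fluorescence (500 nm emission) tracked versus temperature; ΔTm used to derive KD.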

Structure (SMILES) | IC50 [1] | inhibition at 6 µM [1] | IC50 ([2]; Homo sapiens, CD4+ T, 72 h) | Kd [3] | RORγt reporter Assay, % inhibition @ 6 μM [1] | IC50 [2]
CC(C)Oc1nc2ccc(C(O)(c3cccnc3)c3cccc(Cl)c3)cc2c(Cl)c1-c1ccccc1 (stereo not shown) [Example 84, [4-Chloro-2-(1-methylethoxy)-3-phenylquinolin-6-yl](3-chlorophenyl)pyridin-3-ylmethanol•TFA] | 890 nM | 73% | 1300 nM | 1400 nM |  | 
OC(c1ccncc1)(c1ccncc1)c1ccc2nc(Cl)c(-c3ccccc3)c(Cl)c2c1 [Example 21, (2,4-Dichloro-3-phenylquinolin-6-yl)(dipyridin-4-yl)methanol•TFA] | 860 nM | 91% | ~900 nM | 120 nM |  | 
OC(c1ccccc1)(c1cccnc1)c1ccc2nc(Cl)c(-c3ccccc3Cl)c(Cl)c2c1 (stereo not shown) [Example 6, (2,4-Dichloro-3-(2-chlorophenyl)quinolin-6-yl)(phenyl)(pyridin-3-yl)methanol] | 240 nM | 90% | ~6000 nM | 74 nM |  | 
CSc1ncc(C(O)(c2ccc(Cl)cc2)c2ccc3nc(Cl)c(-c4ccccc4)c(Cl)c3c2)n1C (stereo not shown) [Example 145, (4-Chlorophenyl)(2,4-dichloro-3-phenylquinolin-6-yl)(1-methyl-2-(methylthio)-1H-imidazol-5-yl)methanol] | 250 nM | 93% | 1200 nM | 2100 nM |  | 
Cn1c(C(O)(c2ccc(Cl)cc2)c2ccc3nc(Cl)c(-c4ccccc4)c(Cl)c3c2)cnc1Cl (stereo not shown) [Example 141, (2-Chloro-1-methyl-1H-imidazol-5-yl)(4-chlorophenyl)(2,4-dichloro-3-phenylquinolin-6-yl)methanol] | 210 nM | 99% | 1200 nM | 620 nM |  | 
COc1nc2c(C)cc(C(O)(c3ccc(C(F)(F)F)nc3)c3cncn3C)cc2c(C#N)c1-c1cccc(F)c1 (single isomer, unassigned) [Example 179c, 3-(3-Fluorophenyl)-6-(hydroxy(1-methyl-1H-imidazol-5-yl)(6-(trifluoromethyl)pyridin-3-yl)methyl)-2-methoxy-8-methylquinoline-4-carbonitrile] | 480 nM |  | ~1000 nM | 63 nM | 96% | 
Cn1cncc1C(O)(c1ccc2nc(Cl)c(-c3ccccc3)c(Cl)c2c1)c1cnccn1 (stereo not shown) [Example 122, (2,4-Dichloro-3-phenylquinolin-6-yl)(1-methyl-1H-imidazol-5-yl)(pyrazin-2-yl)methanol] | 470 nM | 91% | 500 nM | 250 nM |  | 
Cc1nc(C(O)(c2ccc3nc(Cl)c(-c4ccccc4)c(Cl)c3c2)c2cncn2C)cs1 (stereo not shown) [Example 140, (2,4-Dichloro-3-phenylquinolin-6-yl)(1-methyl-1H-imidazol-5-yl)(2-methylthiazol-4-yl)methanol] | 320 nM | 105% | 1800 nM | 560 nM |  | 
[O-][n+]1cccc(C(O)(c2cccc(Cl)c2)c2ccc3nc(C(F)(F)F)c(-c4ccccc4)c(C(F)(F)F)c3c2)c1 (stereo not shown) [Example 166, 3-((3-Chlorophenyl)(hydroxy)(3-phenyl-2,4-bis(trifluoromethyl)quinolin-6-yl)methyl)pyridine 1-oxide•TFA] | 180 nM | 103% | 150 nM | 36 nM |  | 
Cn1cncc1C(O)(c1ccncc1)c1ccc2nc(N3CCOCC3)c(-c3ccccc3)c(Cl)c2c1 (stereo not shown) [Example 20, (4-Chloro-2-morpholin-4-yl-3-phenylquinolin-6-yl)(1-methyl-1H-imidazol-5-yl)pyridin-4-ylmethanol•TFA] | 330 nM | 104% | 520 nM | 130 nM |  | 
COc1nc2c(C)cc(C(O)(c3ccc(C(F)(F)F)nc3)c3cncn3C)cc2c(Cl)c1-c1cccc(F)c1 (single isomer, unassigned) [Example 177c, (4-Chloro-3-(3-fluorophenyl)-2-methoxy-8-methylquinolin-6-yl)(1-methyl-1H-imidazol-5-yl)(6-(trifluoromethyl)pyridin-3-yl)methanol] | 360 nM |  |  | 1300 nM | 98% | 2500 nM

Results, then the compound that gave them:

IC50 [1] | inhibition at 6 µM [1] | IC50 ([2]; Homo sapiens, CD4+ T, 72 h) | Kd [3] | RORγt reporter Assay, % inhibition @ 6 μM [1] | IC50 [2] | Structure (SMILES)
39 nM | 100% | 43 nM | 30 nM |  |  | N#Cc1ccc(C(O)(c2cccc(Cl)c2)c2ccc3nc(C#N)c(-c4ccccc4)c(C#N)c3c2)cn1 (stereo not shown) [Example 104, 6-[(3-Chlorophenyl)(6-cyanopyridin-3-yl)hydroxymethyl]-3-phenylquinoline-2,4-dicarbonitrile•TFA]
350 nM | 98% | 300 nM | 36 nM |  |  | CCc1nc2ccc(C(O)(c3ccncc3)c3cncn3C)cc2c(N(C)C)c1-c1ccccc1 (stereo not shown) [Example 98, [4-(Dimethylamino)-2-ethyl-3-phenylquinolin-6-yl](1-methyl-1H-imidazol-5-yl)pyridin-4-ylmethanol•TFA]
91 nM | 100% | 210 nM | 26 nM |  |  | COc1ccc(C(O)(c2ccc3nc(Cl)c(-c4ccccc4)c(Cl)c3c2)c2cc(C)no2)cn1 (stereo not shown) [Example 131, (2,4-Dichloro-3-phenylquinolin-6-yl)(6-methoxypyridin-3-yl)(3-methylisoxazol-5-yl)methanol•TFA]
62 nM | 99% | 120 nM | 27 nM |  |  | CC(=O)N1CCC(C(O)(c2ccc3nc(C(F)(F)F)c(-c4ccccc4)c(C(F)(F)F)c3c2)c2cncn2C)CC1 (single isomer, unassigned) [Example 181b, 1-(4-(Hydroxy(1-methyl-1H-imidazol-5-yl)(3-phenyl-2,4-bis(trifluoromethyl)quinolin-6-yl)methyl)piperidin-1-yl)ethanone]
18 nM | 98% | 26 nM | 1.2 nM |  |  | Cn1cncc1C(O)(c1ccncc1)c1ccc2nc(C(F)(F)F)c(-c3ccccc3)c(C(F)(F)F)c2c1 (stereo not shown) [Example 164, (1-Methyl-1H-imidazol-5-yl)(3-phenyl-2,4-bis(trifluoromethyl)quinolin-6-yl)(pyridin-4-yl)methanol•TFA]
~100 nM | 103% | 330 nM | 22 nM |  |  | Cn1cncc1C(O)(c1ccc(F)nc1)c1ccc2nc(Cl)c(-c3ccccc3)c(Cl)c2c1 (stereo not shown) [Example 12, (2,4-Dichloro-3-phenylquinolin-6-yl)(6-fluoropyridin-3-yl)(1-methyl-1H-imidazol-5-yl)methanol•TFA]
110 nM and ~100 nM | 98% | 200 nM | 23 nM |  |  | CN(C)c1nc2ccc(C(O)(c3cccnc3)c3cccc(Cl)c3)cc2c(Cl)c1-c1ccccc1 (stereo not shown) [Example 41, [4-Chloro-2-(dimethylamino)-3-phenylquinolin-6-yl](3-chlorophenyl)pyridin-3-ylmethanol•TFA]
47 nM and < 50 nM | 100% | 140 nM | 33 nM |  |  | CN(C)c1nc2ccc(C(O)(c3cccnc3)c3cncn3C)cc2c(Cl)c1-c1ccccc1 (stereo not shown) [Example 34, [4-Chloro-2-(dimethylamino)-3-phenylquinolin-6-yl](1-methyl-1H-imidazol-5-yl)pyridin-3-ylmethanol•TFA]
~300 nM | 93% | ~1000 nM | 33 nM |  |  | CCc1nc2ccc(C(O)(c3ccc(F)cc3)c3cccnc3)cc2c(Cl)c1-c1ccccc1 (stereo not shown) [Example 30, (4-Chloro-2-ethyl-3-phenylquinolin-6-yl)(4-fluorophenyl)pyridin-3-ylmethanol•TFA]
120 nM | 97% | 690 nM | 6.1 nM |  |  | Cc1cc(C(O)(c2ccnc(C(F)(F)F)c2)c2cncn2C)cc2c(Cl)c(-c3ccccc3)c(Cl)nc12 (stereo not shown) [Example 160, (2,4-Dichloro-8-methyl-3-phenylquinolin-6-yl)(1-methyl-1H-imidazol-5-yl)(2-(trifluoromethyl)pyridin-4-yl)methanol•TFA]
85 nM | 106% | 530 nM | 15 nM |  |  | Cn1cncc1C(O)(c1ccc(Cl)nc1)c1ccc2nc(Cl)c(-c3ccccc3)c(Cl)c2c1 (stereo not shown) [Example 13]
